Results from patent US9181232B2, “Difluoro-hexahydro-cyclopentaoxazinyls and difluoro-hexahydro-benzooxazinyls as BACE1 inhibitors” (Hoffmann-La Roche Inc., priority 2012, dated 2015).
pIC50: −log10 of the molar value.

Tests used:
BACE1 = molecular target: T1, BACE1 (Homo sapiens, UniProt P56817); experiment: Cellular Aβ-lowering assay (Aβ40 ELISA, HEK293 cells expressing human APP695); format: cell-based; conditions: HEK293 cells stably expressing human APP695; Aβ40 in supernatant after 18-20 hrs; read-out: BACE1 cell act. Aβ40 IC50
T1 construct: Human HEK293 cells which are stably transfected with a vector expressing a cDNA of the human APP wt gene (APP695); endogenous in cells; host or cells: HEK293 stably expressing human APP695 wt
Protocol: Human HEK293 cells which are stably transfected with a vector expressing a cDNA of the human APP wt gene (APP695) were used to assess the potency of the compounds in a cellular assay. The cells were seeded in 96-well microtiter plates in cell culture medium (Iscove, plus 10% (v/v) fetal bovine serum, glutamine, penicillin/streptomycin) to about 80% confluence and the compounds were added at a 10× concentration in 1/10 volume of medium without FCS containing 8% DMSO (final concentration of DMSO was kept at 0.8% v/v). After 18-20 hrs incubation at 37° C. and 5% CO2 in a humidified incubator the culture supernatant was harvested for the determination of Aβ40 concentrations. 96 well ELISA plates (e.g., Nunc MaxiSorb) were coated with monoclonal antibody which specifically recognize the C-terminal end of Aβ40^10. After blocking of non-specific binding sites with e.g. 1% BSA and washing, the culture supernatants were added in suitable dilutions together with a horseradish peroxidase-coupled Aβ detection antibody (e.g., antibody 4G8, Senetek, Maryland Heights, Mo.) and incubated for 5 to 7 hrs. Subsequently the wells of the microtiter plate were washed extensively with Tris-buffered saline containing 0.05% Tween 20 and the assay was developed with tetramethylbenzidine/H2O2 in citric acid buffer. After stopping the reaction with one volume 1 N H2SO4 the reaction was measured in an ELISA reader at 450 nm wavelength. The concentrations of Aβ in the culture supernatants were calculated from a standard curve obtained with known amounts of pure Aβ peptide.

[1] = molecular target: T2, recombinant human cathepsin E (Homo sapiens, UniProt P14091); experiment: Cathepsin E fluorescent substrate kinetic assay; format: biochemical; conditions: pH 4.5
T2 construct: purchased R&D Systems
T2 sequence (P14091 54-396): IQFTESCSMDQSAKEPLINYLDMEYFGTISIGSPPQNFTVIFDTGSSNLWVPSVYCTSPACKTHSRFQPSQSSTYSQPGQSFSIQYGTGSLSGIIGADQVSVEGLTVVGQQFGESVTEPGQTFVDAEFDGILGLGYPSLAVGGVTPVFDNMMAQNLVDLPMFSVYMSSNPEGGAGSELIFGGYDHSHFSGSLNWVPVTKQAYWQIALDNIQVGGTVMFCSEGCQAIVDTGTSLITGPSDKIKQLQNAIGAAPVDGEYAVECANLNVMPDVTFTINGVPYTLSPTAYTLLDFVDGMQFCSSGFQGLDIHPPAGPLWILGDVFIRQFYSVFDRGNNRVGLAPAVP
Source text: (§1) The MR121 fluorescence assays described below are based on the fact that MR121 forms a non-fluorescent ground state complex with tryptophan. In solution this formation occurs at millimolar concentrations of tryptophan. The mechanism can be used to design a generic biochemical assay for proteases. A substrate peptide is labeled at the N-terminus with tryptophan and at the C-terminus with the fluorophore MR121 (for cathepsin D the 10 amino acid peptide WTSVLMAAPC-MR121 was used; for cathepsin E, MR121-CKLVFFAEDW was used). In absence of protease activity, the substrates remain intact and the MR121 fluorescence is reduced by the high local Trp-concentration. If the substrates are cleaved by the enzymes the MR121 fluorescence is recovered.
(§2) The fluorescent substrate cathepsin D and cathepsin E kinetic assays were performed at room temperature in 384-well microtiter plates (black with clear flat bottom, non binding surface plates from Corning) in a final volume of 51 μl. The test compounds were serially diluted in DMSO (15 concentrations, 1/3 dilution steps) and 1 μl of diluted compounds were mixed for 10 min with 40 μl of cathepsin D (from human liver, Calbiochem) diluted in assay buffer (100 mM sodium acetate, 0.05% BSA, pH 5.5; final concentration: 200 nM) or with 40 μl of recombinant human cathepsin E (R&D Systems) diluted in assay buffer (100 mM sodium acetate, 0.05% BSA, pH 4.5; final concentration: 0.01 nM). After addition of 10 μl of the cathepsin D substrate WTSVLMAAPC-MR121 diluted in cathepsin D assay buffer (final concentration: 300 nM) or […] cathepsin E substrate MR121-CKLVFFAEDW diluted in cathepsin E assay buffer (final concentration: 300 nM), the plates were strongly shaken for 2 minutes. The enzymatic reaction was followed in a plate: vision reader (Perkin Elmer) (excitation wavelength: 630 nm; emission: 695 nm) for at least 30 minutes in a kinetic measurement detecting an increase of MR121 fluorescence during the reaction time. The slope in the linear range of the kinetic was calculated and the IC50 of the test compounds were determined using a four parameter equation for curve fitting.

[2] = molecular target: T3, cathepsin D (from human liver) (Homo sapiens, UniProt P07339); experiment: Cathepsin D fluorescent substrate kinetic assay; format: biochemical; conditions: pH 5.5
T3 construct: cathepsin D (from human liver, Calbiochem); purchased Calbiochem; host or cells: human liver (tissue-purified)
Source text: as §1, §2

CYP2C9 = molecular target: T4, CYP2C9 (Homo sapiens, UniProt P11712); experiment: CYP inhibition assay, human liver microsomes, diclofenac; format: in vitro ADME; conditions: read-out: CYP IC50 2C9
T4 construct: 0.2 mg/ml pooled human liver microsomes; from tissue; host or cells: pooled human liver microsomes
Protocol: (§3) Inhibition of cytochromes P450 (CYPs) 2C9, 2D6 and 3A4 was assessed using human liver microsomes and CYP-selective substrate metabolism reactions. 50 μl incubations were made up containing (finally) 0.2 mg/ml pooled human liver microsomes, 5 μM substrate (diclofenac for CYP2C9 [4′hydroxylase], dextromethorphan for CYP2D6 [O-demethylase] or midazolam for CYP3A4 [1′hydroxylase]), 0.25 μL DMSO containing test inhibitor and NADPH regenerating system. Test inhibitor concentrations of 50, 16.7, 5.6, 1.9, 0.6 and 0.2 μM were assessed in singlicate. Incubations were prewarmed to 37° C. for 10 minutes before initiation by addition of NADPH regenerating system. Incubations were quenched after 5 minutes (20 minutes for dextromethorphan) by addition of 50 μl cold acetonitrile containing 20 ng/ml 4-OH-diclofenac-13C6, 20 ng/mL dextrorphan-D3 and 20 ng/mL 1-OH-midazolam-D4. Quenched incubates were stored at −20° C. for at least 1 hour before centrifugation (20,000×g, 20 minutes). Supernatants were removed and diluted 1:1 with water prior to analysis using a RapidFire sample injector system and API4000 mass spectrometer. Peak areas for substrate, metabolite and stable-labelled metabolite standard were determined using MS/MS. The peak area ratios between the metabolite generated by the enzymatic reaction and the internal standard were used in subsequent calculations. The percentage of (DMSO) control activity was calculated for each incubate and IC50 values estimated by non-linear regression. Sulfaphenazole, quinidine or ketoconazole were tested in each CYP2C9, CYP2D6 or CYP3A4 inhibition experiment, respectively, to ensure assay sensitivity and reproducibility. (Validated assays for human cytochrome P450 activities^11)

CYP2D6 = molecular target: T5, CYP2D6 (Homo sapiens, UniProt P10635); experiment: CYP inhibition assay, human liver microsomes, dextromethorphan; format: in vitro ADME; conditions: read-out: CYP IC50 2D6
T5 construct: 0.2 mg/ml pooled human liver microsomes; from tissue; host or cells: pooled human liver microsomes
Protocol: as §3

CYP3A4 = molecular target: T6, CYP3A4 (Homo sapiens, UniProt P08684); experiment: CYP inhibition assay, human liver microsomes, midazolam; format: in vitro ADME; conditions: read-out: CYP IC50 3A4
T6 construct: 0.2 mg/ml pooled human liver microsomes; from tissue; host or cells: pooled human liver microsomes
Protocol: as §3

T1 sequence (P56817 46-501): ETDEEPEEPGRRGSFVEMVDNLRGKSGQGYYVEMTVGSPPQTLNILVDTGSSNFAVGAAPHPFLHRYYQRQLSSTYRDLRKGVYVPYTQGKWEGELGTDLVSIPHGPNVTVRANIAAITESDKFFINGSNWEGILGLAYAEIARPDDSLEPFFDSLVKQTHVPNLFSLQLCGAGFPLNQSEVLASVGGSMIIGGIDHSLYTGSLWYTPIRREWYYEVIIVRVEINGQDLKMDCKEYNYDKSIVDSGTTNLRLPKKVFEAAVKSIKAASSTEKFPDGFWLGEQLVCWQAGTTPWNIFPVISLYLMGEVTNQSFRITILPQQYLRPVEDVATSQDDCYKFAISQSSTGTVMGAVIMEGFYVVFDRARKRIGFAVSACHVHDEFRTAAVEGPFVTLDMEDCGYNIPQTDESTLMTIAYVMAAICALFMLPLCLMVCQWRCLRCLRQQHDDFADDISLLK
T3 sequence (P07339 65-162 limits assumed): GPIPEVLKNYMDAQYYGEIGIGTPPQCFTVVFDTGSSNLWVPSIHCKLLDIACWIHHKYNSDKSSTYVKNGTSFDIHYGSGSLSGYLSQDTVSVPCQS
T3 sequence (P07339 169-412 limits assumed): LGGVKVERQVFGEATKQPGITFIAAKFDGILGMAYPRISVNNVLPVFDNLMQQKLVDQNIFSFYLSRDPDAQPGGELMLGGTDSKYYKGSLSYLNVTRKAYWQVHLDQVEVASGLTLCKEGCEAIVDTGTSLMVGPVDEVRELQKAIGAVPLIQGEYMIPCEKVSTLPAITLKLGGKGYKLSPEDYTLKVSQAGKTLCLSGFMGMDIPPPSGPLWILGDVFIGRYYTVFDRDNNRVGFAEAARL
T5 sequence (P10635 whole entry): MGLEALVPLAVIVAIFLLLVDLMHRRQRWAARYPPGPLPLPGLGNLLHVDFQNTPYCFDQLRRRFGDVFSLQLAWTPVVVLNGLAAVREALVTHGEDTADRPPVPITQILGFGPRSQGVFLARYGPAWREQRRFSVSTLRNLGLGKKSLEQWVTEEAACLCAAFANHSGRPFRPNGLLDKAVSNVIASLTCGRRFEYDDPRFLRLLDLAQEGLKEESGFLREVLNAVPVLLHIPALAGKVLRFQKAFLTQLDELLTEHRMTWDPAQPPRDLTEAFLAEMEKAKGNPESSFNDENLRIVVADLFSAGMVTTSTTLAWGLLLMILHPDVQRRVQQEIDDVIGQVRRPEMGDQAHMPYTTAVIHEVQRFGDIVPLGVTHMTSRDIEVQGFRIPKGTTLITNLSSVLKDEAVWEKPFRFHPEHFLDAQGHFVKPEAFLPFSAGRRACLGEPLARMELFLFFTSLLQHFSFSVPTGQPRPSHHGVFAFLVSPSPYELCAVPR
T4 sequence (P11712 whole entry): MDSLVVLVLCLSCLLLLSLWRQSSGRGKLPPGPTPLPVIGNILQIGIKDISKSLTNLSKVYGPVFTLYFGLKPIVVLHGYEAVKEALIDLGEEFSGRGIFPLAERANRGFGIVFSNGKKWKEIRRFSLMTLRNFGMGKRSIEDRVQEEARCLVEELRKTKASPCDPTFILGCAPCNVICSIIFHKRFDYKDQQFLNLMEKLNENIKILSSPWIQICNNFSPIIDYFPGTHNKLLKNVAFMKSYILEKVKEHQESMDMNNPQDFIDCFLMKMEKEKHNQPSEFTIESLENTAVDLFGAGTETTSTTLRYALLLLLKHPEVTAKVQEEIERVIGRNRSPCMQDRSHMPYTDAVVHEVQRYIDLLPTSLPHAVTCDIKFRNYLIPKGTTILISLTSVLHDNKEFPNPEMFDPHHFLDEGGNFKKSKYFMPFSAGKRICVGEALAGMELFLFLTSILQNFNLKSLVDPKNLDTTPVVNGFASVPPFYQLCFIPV
T6 sequence (P08684 whole entry): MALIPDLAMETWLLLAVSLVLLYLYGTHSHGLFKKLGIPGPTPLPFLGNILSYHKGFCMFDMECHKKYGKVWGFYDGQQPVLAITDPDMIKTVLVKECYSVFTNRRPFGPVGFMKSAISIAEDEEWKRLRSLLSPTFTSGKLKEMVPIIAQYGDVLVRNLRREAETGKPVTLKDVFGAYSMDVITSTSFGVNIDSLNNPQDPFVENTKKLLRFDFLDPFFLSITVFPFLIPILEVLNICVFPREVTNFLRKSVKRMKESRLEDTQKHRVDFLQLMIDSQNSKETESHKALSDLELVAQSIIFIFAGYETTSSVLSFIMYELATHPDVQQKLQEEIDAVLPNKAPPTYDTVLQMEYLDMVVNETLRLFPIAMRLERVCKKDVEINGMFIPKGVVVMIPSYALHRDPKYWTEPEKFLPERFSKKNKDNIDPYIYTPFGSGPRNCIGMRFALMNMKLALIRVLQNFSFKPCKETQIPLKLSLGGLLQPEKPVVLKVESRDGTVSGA

SMILES | pIC50 (BACE1) | pIC50 [1] | pIC50 [2] | pIC50 (CYP2C9) | pIC50 (CYP2D6) | pIC50 (CYP3A4)
C[C@]1(c2cc(NC(=O)c3ccc(Cl)cn3)ccc2F)N=C(N)O[C@@H]2CCC(F)(F)[C@@H]21 [Example 3] | 8.72 |  |  |  |  | 
CC(F)(F)c1cnc(C(=O)Nc2ccc(F)c([C@@]3(C)N=C(N)O[C@@H]4CCC(F)(F)[C@@H]43)c2)cn1 [Example 4, 5-(1,1-Difluoro-ethyl)-pyrazine-2-carboxylic acid [3-((4S,4aR,7aR)-2-amino-5,5-difluoro-4-methyl-4,4a,5,6,7,7a-hexahydro-cyclopenta[e][1,3]oxazin-4-yl)-4-fluoro-phenyl]-amide] | 8.05 | < 3.70 | 3.74 |  |  | 
C[C@]1(c2cc(NC(=O)c3cnc(CF)cn3)ccc2F)N=C(N)O[C@@H]2CCC(F)(F)[C@@H]21 [Example 5, 5-Fluoromethyl-pyrazine-2-carboxylic acid [3-((4S,4aR,7aR)-2-amino-5,5-difluoro-4-methyl-4,4a,5,6,7,7a-hexahydro-cyclopenta[e][1,3]oxazin-4-yl)-4-fluoro-phenyl]-amide] | 8.29 |  |  |  |  | 
C[C@]1(c2cc(NC(=O)c3cnc(C#N)cn3)ccc2F)N=C(N)O[C@@H]2CCC(F)(F)[C@@H]21 [Example 6, 5-Cyano-pyrazine-2-carboxylic acid [3-((4S,4aR,7aR)-2-amino-5,5-difluoro-4-methyl-4,4a,5,6,7,7a-hexahydro-cyclopenta[e][1,3]oxazin-4-yl)-4-fluoro-phenyl]-amide] | 8.26 |  |  |  |  | 
C[C@]1(c2cc(NC(=O)c3ccc(Cl)cn3)ccc2F)N=C(N)O[C@@H]2CCCC(F)(F)[C@@H]21 [Example 7, 5-Chloro-pyridine-2-carboxylic acid [3-((4S,4aR,8aR)-2-amino-5,5-difluoro-4-methyl-4a,5,6,7,8,8a-hexahydro-4H-benzo[e][1,3]oxazin-4-yl)-4-fluoro-phenyl]-amide] | 8.31 |  |  |  |  | 
C[C@]1(c2cc(NC(=O)c3ccc(Cl)s3)ccc2F)N=C(N)O[C@@H]2CCCC(F)(F)[C@@H]21 [Example 9, 5-Chloro-thiophene-2-carboxylic acid [3-((4S,4aR,8aR)-2-amino-5,5-difluoro-4-methyl-4a,5,6,7,8,8a-hexahydro-4H-benzo[e][1,3]oxazin-4-yl)-4-fluoro-phenyl]-amide] | 6.46 | < 3.70 | 3.98 | 5.00 to 6.00 | 5.00 to 6.00 | < 5.00
